{"source": "ChEMBL document CHEMBL1201862", "about": "“PubChem BioAssay data set” (2004)", "key": {"[1]": {"target": "T1, Endoribonuclease toxin MazF (Escherichia coli K-12, UniProt P0AE70)", "T1 sequence (P0AE70 whole entry)": "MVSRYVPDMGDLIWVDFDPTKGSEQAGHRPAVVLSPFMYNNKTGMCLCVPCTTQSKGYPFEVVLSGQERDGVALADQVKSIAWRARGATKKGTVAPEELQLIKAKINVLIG", "experiment": "substrate-only fluorescence increase artefacts – biochemical, single-stranded RNase substrate, counter-screen for MazEF activator project, dose response (AID 588502)", "assay_type": "functional"}, "[2]": {"target": "T1, Endoribonuclease toxin MazF", "experiment": "activation of MazEF endoribonuclease cleavage – biochemical, fluorescence, single-stranded RNA substrate, uHTS hits, dose response (AID 588481)", "assay_type": "functional"}, "Estrogen receptor [3]": {"target": "T2, Estrogen receptor (Homo sapiens, UniProt P03372)", "T2 sequence (P03372 whole entry)": "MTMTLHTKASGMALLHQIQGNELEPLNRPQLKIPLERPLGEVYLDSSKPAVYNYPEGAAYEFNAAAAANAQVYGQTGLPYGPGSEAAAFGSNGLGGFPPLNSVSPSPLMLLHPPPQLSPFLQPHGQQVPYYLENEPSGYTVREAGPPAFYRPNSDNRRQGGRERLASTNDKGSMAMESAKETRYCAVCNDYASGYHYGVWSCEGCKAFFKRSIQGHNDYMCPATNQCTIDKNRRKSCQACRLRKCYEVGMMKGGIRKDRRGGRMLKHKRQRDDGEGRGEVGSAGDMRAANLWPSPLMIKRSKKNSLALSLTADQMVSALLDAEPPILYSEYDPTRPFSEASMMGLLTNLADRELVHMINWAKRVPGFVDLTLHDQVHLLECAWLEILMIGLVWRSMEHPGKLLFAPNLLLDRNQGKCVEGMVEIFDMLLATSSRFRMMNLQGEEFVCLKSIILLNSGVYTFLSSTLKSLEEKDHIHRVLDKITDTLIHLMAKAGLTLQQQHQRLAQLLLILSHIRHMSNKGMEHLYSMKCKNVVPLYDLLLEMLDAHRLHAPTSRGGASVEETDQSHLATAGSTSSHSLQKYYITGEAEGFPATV", "experiment": "ERα coactivator recruitment enhancers – biochemical, TR-FRET, ERα LBD, dose response (AID 737)"}, "[4]": {"target": "Peroxisome proliferator-activated receptor gamma/Nuclear receptor coactivator 3 (Homo sapiens, UniProt P37231)", "sequence (P37231 whole entry)": "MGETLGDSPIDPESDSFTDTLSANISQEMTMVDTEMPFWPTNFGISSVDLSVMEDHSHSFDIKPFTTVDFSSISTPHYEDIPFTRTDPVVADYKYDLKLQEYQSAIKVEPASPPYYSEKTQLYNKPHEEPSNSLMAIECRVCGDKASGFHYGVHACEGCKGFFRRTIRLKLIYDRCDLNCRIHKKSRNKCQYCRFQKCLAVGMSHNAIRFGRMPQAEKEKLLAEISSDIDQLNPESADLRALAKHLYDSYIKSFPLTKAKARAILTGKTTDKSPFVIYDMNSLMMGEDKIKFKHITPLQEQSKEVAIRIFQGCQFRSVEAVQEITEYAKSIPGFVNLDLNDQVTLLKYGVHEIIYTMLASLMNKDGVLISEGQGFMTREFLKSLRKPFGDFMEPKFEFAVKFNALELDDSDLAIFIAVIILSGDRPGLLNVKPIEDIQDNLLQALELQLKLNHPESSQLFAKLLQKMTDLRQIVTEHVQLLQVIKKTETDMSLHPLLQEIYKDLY", "sequence (Q9Y6Q9 whole entry, further chain)": "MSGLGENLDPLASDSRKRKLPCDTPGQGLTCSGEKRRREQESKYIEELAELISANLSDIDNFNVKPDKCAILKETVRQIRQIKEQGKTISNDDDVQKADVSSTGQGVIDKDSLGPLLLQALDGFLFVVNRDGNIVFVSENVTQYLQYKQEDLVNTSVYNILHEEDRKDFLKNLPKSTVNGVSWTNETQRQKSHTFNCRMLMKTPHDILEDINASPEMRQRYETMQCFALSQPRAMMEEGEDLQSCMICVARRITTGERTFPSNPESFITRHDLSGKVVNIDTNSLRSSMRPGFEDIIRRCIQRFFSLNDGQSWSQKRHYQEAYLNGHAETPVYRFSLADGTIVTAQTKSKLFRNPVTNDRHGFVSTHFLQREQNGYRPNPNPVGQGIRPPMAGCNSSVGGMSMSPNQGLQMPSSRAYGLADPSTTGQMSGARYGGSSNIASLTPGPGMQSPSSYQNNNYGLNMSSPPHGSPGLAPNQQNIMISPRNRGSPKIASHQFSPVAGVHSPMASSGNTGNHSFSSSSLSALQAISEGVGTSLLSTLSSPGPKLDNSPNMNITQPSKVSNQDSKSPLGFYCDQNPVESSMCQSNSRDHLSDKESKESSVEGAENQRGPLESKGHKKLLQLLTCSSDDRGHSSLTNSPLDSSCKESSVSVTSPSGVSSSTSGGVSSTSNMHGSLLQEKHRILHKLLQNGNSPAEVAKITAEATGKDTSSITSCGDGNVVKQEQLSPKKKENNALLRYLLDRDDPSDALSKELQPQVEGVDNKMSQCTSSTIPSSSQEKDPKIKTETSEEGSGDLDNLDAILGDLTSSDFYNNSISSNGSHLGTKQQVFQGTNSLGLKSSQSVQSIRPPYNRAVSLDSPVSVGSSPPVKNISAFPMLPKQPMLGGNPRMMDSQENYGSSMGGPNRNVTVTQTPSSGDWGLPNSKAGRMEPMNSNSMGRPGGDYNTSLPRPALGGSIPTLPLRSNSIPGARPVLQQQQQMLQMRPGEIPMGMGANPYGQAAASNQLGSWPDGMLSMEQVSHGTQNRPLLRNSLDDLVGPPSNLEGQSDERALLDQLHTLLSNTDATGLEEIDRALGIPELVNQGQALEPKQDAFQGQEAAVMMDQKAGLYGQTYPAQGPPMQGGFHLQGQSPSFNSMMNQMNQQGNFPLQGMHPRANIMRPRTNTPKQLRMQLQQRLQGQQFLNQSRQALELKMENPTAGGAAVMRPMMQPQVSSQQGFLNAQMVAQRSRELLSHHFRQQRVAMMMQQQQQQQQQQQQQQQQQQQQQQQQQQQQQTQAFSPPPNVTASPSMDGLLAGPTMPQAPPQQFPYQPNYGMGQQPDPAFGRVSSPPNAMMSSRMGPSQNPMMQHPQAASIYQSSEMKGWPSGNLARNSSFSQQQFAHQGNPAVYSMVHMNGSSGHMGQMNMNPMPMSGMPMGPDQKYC", "experiment": "(§1) TR-FRET dose response biochemical High Throughput Screening assay for agonists of the steroid receptor coactivator 3 (SRC-3) recruitment by the peroxisome proliferator-activated receptor gamma (PPAR gamma): non-selective agonists. [Related pubchem assays: 1301 (Confirmation screen.), 1048 (Primary screen.)]", "assay_type": "functional"}, "[5]": {"target": "Peroxisome proliferator-activated receptor gamma/Nuclear receptor coactivator 1 (Homo sapiens, UniProt P37231)", "experiment": "as §1, with “1 (SRC-1)” for “3 (SRC-3)”, “assays (depositor defined):AID1300, AID1808, AID504735, AID631]” for “assays: 1301 (Confirmation screen.), 1048 (Primary screen.)]”", "assay_type": "protein assay"}, "[6]": {"experiment": "NIH3T3 cell viability loss – ATP luminescence, mouse fibroblasts, counter-screen, dose response (AID 2010)", "assay_type": "functional, cell-based"}, "[7]": {"experiment": "Luminescence Cell-Based Secondary HTS screen to identify cytotoxic compounds of NIH3T3 cells. [Related pubchem assays: 1885, 1968 ]", "assay_type": "functional"}, "[8]": {"experiment": "Trypanosoma cruzi growth suppression in host cells – NIH3T3 host cells, beta-gal luminescence, confirmation (AID 2044)", "assay_type": "functional, cell-based"}, "[9]": {"experiment": "T. cruzi infection blockers in NIH3T3 cells – beta-gal luminescence, NIH3T3 host cells, confirmation (AID 2630)", "assay_type": "functional, cell-based", "details": "Mus musculus"}, "[10]": {"experiment": "Luminescence Cell-Based/Microorganism Confirmation at Dose of Inhibitors of Trypanosoma cruzi Infection. [Related pubchem assays: 1885, 1968 ]", "assay_type": "functional"}, "[11]": {"target": "Peroxisome proliferator-activated receptor gamma/Nuclear receptor coactivator 2 (Homo sapiens, UniProt P37231)", "experiment": "TR-FRET dose response biochemical High Throughput Screening assay for agonists of the steroid receptor coactivator 2 (SRC-2) recruitment by the peroxisome proliferator-activated receptor gamma (PPAR gamma): non-selective agonists. [Related pubchem assays: 1297, 1032 ]", "assay_type": "functional"}, "[12]": {"target": "Neuropeptide Y receptor type 2 (Homo sapiens, UniProt P49146)", "sequence (P49146 whole entry)": "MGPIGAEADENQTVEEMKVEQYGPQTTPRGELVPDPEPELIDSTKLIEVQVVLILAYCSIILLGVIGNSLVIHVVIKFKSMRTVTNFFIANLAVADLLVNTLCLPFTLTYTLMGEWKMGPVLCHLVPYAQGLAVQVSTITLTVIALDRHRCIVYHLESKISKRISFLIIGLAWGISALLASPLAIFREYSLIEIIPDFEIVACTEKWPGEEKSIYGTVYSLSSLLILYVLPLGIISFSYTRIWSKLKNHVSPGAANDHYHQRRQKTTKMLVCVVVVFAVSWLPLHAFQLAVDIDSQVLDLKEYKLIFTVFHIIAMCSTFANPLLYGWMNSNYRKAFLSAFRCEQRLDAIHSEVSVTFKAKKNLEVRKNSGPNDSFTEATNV", "experiment": "IC50 for human NPY-Y2 blockade – cell-based, counter-screen for NPY-Y1 antagonist project, dose response (AID 1278)", "assay_type": "functional"}, "[13]": {"target": "Neuropeptide Y receptor type 1 (Homo sapiens, UniProt P25929)", "sequence (P25929 whole entry)": "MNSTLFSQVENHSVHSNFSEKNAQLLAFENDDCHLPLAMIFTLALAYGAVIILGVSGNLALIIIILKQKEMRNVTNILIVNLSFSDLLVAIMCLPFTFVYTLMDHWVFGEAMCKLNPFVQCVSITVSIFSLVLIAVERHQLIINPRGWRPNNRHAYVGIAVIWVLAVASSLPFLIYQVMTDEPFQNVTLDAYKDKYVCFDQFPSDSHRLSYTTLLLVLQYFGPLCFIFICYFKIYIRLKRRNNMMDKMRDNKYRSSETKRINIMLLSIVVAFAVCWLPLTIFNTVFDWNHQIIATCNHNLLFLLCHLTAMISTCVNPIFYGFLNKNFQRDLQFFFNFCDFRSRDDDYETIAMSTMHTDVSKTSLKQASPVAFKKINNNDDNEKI", "experiment": "IC50 of human NPY-Y1 blockers – cell-based, dose response (AID 1277)", "assay_type": "functional"}, "[14]": {"target": "T3, Heat shock factor protein 1 (Mus musculus, UniProt P38532)", "T3 sequence (P38532 whole entry)": "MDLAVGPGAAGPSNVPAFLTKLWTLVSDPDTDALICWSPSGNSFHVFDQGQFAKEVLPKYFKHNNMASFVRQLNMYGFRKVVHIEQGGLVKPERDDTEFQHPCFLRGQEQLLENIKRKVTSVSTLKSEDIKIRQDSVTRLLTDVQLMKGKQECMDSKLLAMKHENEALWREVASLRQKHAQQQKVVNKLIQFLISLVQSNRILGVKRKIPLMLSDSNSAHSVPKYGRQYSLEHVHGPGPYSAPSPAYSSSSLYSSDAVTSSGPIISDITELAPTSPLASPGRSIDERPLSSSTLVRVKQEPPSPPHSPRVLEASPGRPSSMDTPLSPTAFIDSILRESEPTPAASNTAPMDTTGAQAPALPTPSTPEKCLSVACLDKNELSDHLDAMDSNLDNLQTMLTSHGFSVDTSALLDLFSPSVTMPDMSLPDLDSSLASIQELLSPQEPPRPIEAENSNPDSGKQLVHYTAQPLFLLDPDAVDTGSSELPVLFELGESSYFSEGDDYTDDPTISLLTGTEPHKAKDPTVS", "experiment": "decrease of HSF1-responsive luciferase luminescence – cell-based, NIH3T3, dose retest, confirmation (AID 2382)", "assay_type": "functional"}, "[15]": {"target": "T4, Oxysterols receptor LXR-beta (Homo sapiens, UniProt P55055)", "T4 sequence (P55055 whole entry)": "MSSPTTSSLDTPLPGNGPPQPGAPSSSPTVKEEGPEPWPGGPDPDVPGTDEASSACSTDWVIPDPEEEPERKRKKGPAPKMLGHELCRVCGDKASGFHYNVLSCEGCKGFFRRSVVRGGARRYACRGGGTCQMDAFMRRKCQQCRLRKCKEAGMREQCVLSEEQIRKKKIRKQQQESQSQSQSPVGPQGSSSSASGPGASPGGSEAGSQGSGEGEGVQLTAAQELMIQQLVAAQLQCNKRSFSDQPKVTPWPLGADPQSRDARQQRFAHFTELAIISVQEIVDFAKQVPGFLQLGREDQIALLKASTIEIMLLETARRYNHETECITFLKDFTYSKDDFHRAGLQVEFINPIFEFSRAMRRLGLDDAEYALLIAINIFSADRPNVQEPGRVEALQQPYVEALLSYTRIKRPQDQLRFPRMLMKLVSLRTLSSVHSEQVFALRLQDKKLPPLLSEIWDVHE", "assay_type": "functional, cell-based"}, "[16]": {"experiment": "blockers of bursicon-stimulated LGR2 cAMP reporter – cell-based, HEK293, CRE-luciferase reporter, cherry pick, set 2, dose response (AID 743343)", "assay_type": "functional"}, "BJ [17]": {"system": "BJ", "experiment": "growth inhibition of engineered Ras-driven BJ cells – cell-based, alamar blue fluorescence, cherrypicked samples, dose response (AID 2631)", "assay_type": "functional", "details": "Homo sapiens"}, "HEK293": {"system": "HEK293", "experiment": "EBV LMP1 TES2 canonical NF-kB signalling blockers – cell-based, HEK293, luciferase, cherry-pick, dose response (AID 588343)", "assay_type": "functional", "details": "Homo sapiens"}, "[18]": {"experiment": "blockade of melanocortin 4 receptor signaling – cell-based, plate reader, cherry pick, counter-screen for LGR2 antagonist project, dose response (AID 743444)", "assay_type": "functional"}, "[19]": {"experiment": "DRD fibroblast viability loss – cell-based, non-viral oncogenic, luminescence, dose response (AID 1934)", "assay_type": "functional", "details": "Homo sapiens"}, "[20]": {"experiment": "Luminescence-based counterscreen assay for KLF5 inhibitors: dose response cell-based high throughput screening assay to identify cytotoxic compounds using the IEC-6 intestinal epithelial cell line. [Related pubchem assays: 1700 (Primary screen.), 1834 (Confirmation screen.), 1858 (Summary AID.), 1905 (Counterscreen.)]", "assay_type": "functional"}, "BJ [21]": {"system": "BJ", "experiment": "cells", "assay_type": "functional, cell-based", "details": "Homo sapiens"}, "[22]": {"experiment": "toxicity toward HepG2 liver cells – cell-based, plate reader, cherry-pick, antagonist series, cytotoxicity control, dose response (AID 743416)", "assay_type": "functional"}, "[23]": {"experiment": "alpha-synuclein stem-loop luciferase translation blockers – H4 neuroglioma cells, luminescence, confirmation (AID 1988)", "assay_type": "functional, cell-based"}, "[24]": {"experiment": "A549 cell cytotoxicity, dose response, cytotoxicity control, plate reader, cherry-pick, antagonist series (AID 743412)", "assay_type": "functional, cell-based"}, "[25]": {"experiment": "Luminescence Cell-Based Dose Confirmation HTS to Identify Inhibitors of Platelet Dense Granule Release. [Related pubchem assays: 1663 (Primary HTS), 1678 (Summary of Project)]", "assay_type": "functional"}, "BJ [26]": {"system": "BJ", "experiment": "BJ-TERT-LT-ST fibroblast viability loss – cell-based, RAS-independent, luminescence, dose response (AID 1935)", "assay_type": "functional", "details": "Homo sapiens"}, "[27]": {"target": "Luciferin 4-monooxygenase (Photinus pyralis, UniProt P08659)", "sequence (P08659 whole entry)": "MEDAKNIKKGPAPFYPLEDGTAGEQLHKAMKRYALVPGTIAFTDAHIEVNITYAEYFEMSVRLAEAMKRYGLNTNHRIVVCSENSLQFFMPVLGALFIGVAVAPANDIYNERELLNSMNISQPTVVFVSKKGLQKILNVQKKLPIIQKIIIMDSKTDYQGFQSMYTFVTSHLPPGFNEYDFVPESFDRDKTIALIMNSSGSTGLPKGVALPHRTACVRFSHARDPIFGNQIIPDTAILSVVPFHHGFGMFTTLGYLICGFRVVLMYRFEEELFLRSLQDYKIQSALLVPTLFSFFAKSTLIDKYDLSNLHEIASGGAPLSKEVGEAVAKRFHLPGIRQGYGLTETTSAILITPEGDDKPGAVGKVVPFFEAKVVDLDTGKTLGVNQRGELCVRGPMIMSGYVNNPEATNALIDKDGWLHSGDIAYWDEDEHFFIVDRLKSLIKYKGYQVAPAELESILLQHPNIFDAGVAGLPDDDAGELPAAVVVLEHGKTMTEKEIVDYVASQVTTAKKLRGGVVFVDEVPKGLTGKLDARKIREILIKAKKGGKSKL", "experiment": "inhibition of purified Photinus pyralis luciferase – biochemical, luminescence, dose response (AID 1891)"}, "BJ [28]": {"system": "BJ", "experiment": "BJ-TERT fibroblast viability loss – cell-based, RAS-independent, luminescence, dose response (AID 1933)", "assay_type": "functional", "details": "Homo sapiens"}, "[29]": {"experiment": "Luminescence Cell-Based Dose Response HTS to Identify Inhibitors of 5'UTR Stem-Loop Driven Prion Protein mRNA Translation in H4 Neuroglioblastoma Cells. [Related pubchem assays: 1827 (Project Summary), 1813 (Primary HTS)]", "assay_type": "functional"}, "Estrogen receptor [30]": {"target": "T2, Estrogen receptor"}, "[31]": {"experiment": "A Cell Based Secondary Assay To Explore Cytotoxicity of Compounds that Sensitize Mycobacterium Tuberculosis to Beta-Lactam Antibiotics.", "assay_type": "functional"}}, "note": "Calls of active or inactive are those of the source."}
{"molecule": "CCc1ccc2nc(SCC(=O)N3CC(=O)Nc4ccccc43)c(C#N)cc2c1", "values": [{"measurement": "EC50", "setting": "[1]", "value": "> 99 µM (inactive)"}, {"measurement": "EC50", "setting": "[2]", "value": "> 99 µM (inactive)"}, {"measurement": "EC50", "setting": "Estrogen receptor [3]", "value": "32.9 µM (not active)"}]}
{"molecule": "COc1cc(C(=O)NCCC(C)C)ccc1OCc1ccc(Cl)cc1Cl", "values": [{"measurement": "EC50", "setting": "[4]", "value": "> 79.4 µM (not active)"}, {"measurement": "EC50", "setting": "[5]", "value": "> 79.4 µM (inactive)"}, {"measurement": "EC50", "setting": "[6]", "value": "> 30 µM (not active)"}, {"measurement": "EC50", "setting": "[7]", "value": "> 195 µM (not active)"}, {"measurement": "EC50", "setting": "[8]", "value": "1.34 µM (active)"}, {"measurement": "EC50", "setting": "[9]", "value": "4.43 µM (active)"}, {"measurement": "EC50", "setting": "[10]", "value": "4.43 µM (inconclusive)"}, {"measurement": "EC50", "setting": "[11]", "value": "> 79.4 µM (not active)"}]}
{"molecule": "CC(C)(C)NC(=O)c1oc2ccccc2c1COc1ccccc1", "values": [{"measurement": "IC50", "setting": "[12]", "value": "> 35 µM (not active)"}, {"measurement": "IC50", "setting": "[13]", "value": "18.9 µM (not active)"}]}
{"molecule": "CCNC(S)=NNC(=O)c1cc(-c2ccc(OCC)cc2)nc2ccccc12", "values": [{"measurement": "EC50", "setting": "[14]", "value": "19 µM (active)"}, {"measurement": "EC50", "setting": "[15]", "value": "> 67.5 µM (inactive)"}, {"measurement": "AC50", "setting": "[16]", "value": "3.19 µM (active)"}, {"measurement": "EC50", "setting": "BJ [17]", "value": "> 133 µM (inactive)"}, {"measurement": "AC50", "setting": "HEK293", "value": "1.7 µM (active)"}, {"measurement": "AC50", "setting": "[18]", "value": "4.32 µM (active)"}, {"measurement": "EC50", "setting": "[19]", "value": "11.7 µM (active)"}, {"measurement": "IC50", "setting": "[20]", "value": "> 39.8 µM (not active)"}, {"measurement": "EC50", "setting": "BJ [21]", "value": "3.3 µM (active)"}, {"measurement": "AC50", "setting": "[22]", "value": "49.6 µM (active)"}, {"measurement": "EC50", "setting": "[23]", "value": "10.4 µM (active)"}, {"measurement": "AC50", "setting": "[24]", "value": "> 52 µM (inactive)"}, {"measurement": "EC50", "setting": "[25]", "value": "1.08 µM (active)"}, {"measurement": "EC50", "setting": "BJ [26]", "value": "> 150 µM (not active)"}, {"measurement": "EC50", "setting": "[27]", "value": "< 0.088 µM (active)"}, {"measurement": "EC50", "setting": "BJ [28]", "value": "8.23 µM (inconclusive)"}, {"measurement": "EC50", "setting": "[29]", "value": "16.1 µM (active)"}]}
{"molecule": "COC(=O)/C(=C\\Nc1ccc(Cl)c2ccccc12)c1ncc(C(F)(F)F)cc1Cl", "values": [{"measurement": "IC50", "setting": "Estrogen receptor [30]", "value": "> 50 µM (not active)"}, {"measurement": "CC50", "setting": "[31]", "value": "> 40 µM (active)"}]}
